How the values were obtained:
[1] = tested on: OVCAR-8 and ID8 cells; experiment: Clonogenic assay; type: cell-based
Protocol: We tested the relationship between AzPs dose and the viability of human ovarian cancer cell lines and the ID8 murine ovarian cancer cell line.
Clonogenic assay: 300 suspended OC cells were plated in each well of 12 well plates (Corning-Costar, #3598) and incubated for 24 h for attachment. The media was replaced after 24 h with media containing a respective concentration of the test compound and incubated for 5-8 days until visible colonies appeared in vehicle-treated wells. Cells were then washed and fixed with 2% paraformaldehyde, followed by washing and staining with 0.5% Crystal violet for 1 h. Cells were de-stained using DI water and allowed to dry. Colonies were counted under the microscope at 100× magnification.
FIG. 1A) Lead optimization of SU093 to obtain SU056. FIG. 1B) IC50 values of SU093 and SU056 on various ovarian cancer cells. Clonogenic survival of OC cells treated with SU093 or SU056. […] FIG. 1C) Representative colony formation from respective wells. FIG. 1D) Number of colonies formed after SU093 and SU056 treatment. […] FIG. 1F) Cell cycle distribution of propidium iodide (PI)-stained OVCAR8, SKOV3, and ID8 cells. […] FIG. 1G) Effects of SU093 and SU056 on apoptotic cell death analyzed by Annexin-FITC staining. […] FIG. 1H) Cell migration assay.

[2] = tested on: OVCAR8 OC tumors; experiment: OVCAR8 xenograft combination study; type: in vivo, NOD-SCID mice; details: SU056 10 mg/kg daily, paclitaxel 5 mg/kg weekly, intraperitoneal, 28 days
Protocol: In a pharmacokinetics study in vivo, injection of 20 mg/kg SU056 led to a maximum serum concentration of 28.19 μg/mL with a T1/2 of ˜45 min. We then tested the synergism of paclitaxel and SU056 co-treatment in vivo in NOD-SCID mice implanted with OVCAR8 OC tumors as described above. Mice were given daily treatment of SU056 (10 mg/kg) and weekly treatment of paclitaxel (5 mg/kg) were administered intraperitoneally. […] This likely resulted from decreased paclitaxel efflux from OVCAR8 cells in the presence of SU056.
In vivo xenograft model and drug efficacy study: All animal experiments were reviewed and approved by the Animal Care and Use Committee of Stanford University, CA, USA. Luciferase tagged ID8 (2×10^6) or OVCAR8 (5×10^6) cells were implanted into the right flank of 6-7-week-old female C57BL/6 mice and NOD/SCID mice, respectively. Respective treatment began after tumors grew to 100-200 mm^3 diameters. The ID8 syngeneic mice model was treated with a vehicle (30% PEG-300 in saline), 20 mg/kg SU093, and 20 mg/kg SU056 intraperitoneally (IP) daily for 42 days. At the end of treatment, blood was collected from each mouse and analyzed for liver toxicity parameters, including Alanine Aminotransferase (ALT), Aspartate Aminotransferase (AST), and Alkaline Phosphatase (ALKP). […]

[3] = tested on: OVCAR8 and SKOV-3 OC cell lines; experiment: MTT combination study of SU056 and paclitaxel; type: cell-based, human; details: paclitaxel at 0.1, 0.5, and 1 nM doses
Protocol: Cell viability assay: Cell viability was assessed using the standard MTT assay protocol. In brief, 5,000 cells were plated in each well of 96 well plates (Corning-Costar, #3598) and allowed to attach for 24 h. Cells were treated with a respective concentration of compounds for respective time points. A stock solution of each compound was prepared in DMSO. DMSO concentration was kept constant and maintained below 0.1%. After each incubation, 50 μL of 0.5 mg/ml MTT solution prepared in 1×PBS was added to each well followed by 1 h incubation at 37° C. and 5% CO2. MTT solution and media were then removed, and MTT formazan crystals were dissolved in 100 μL of DMSO per well. Absorbance at 570 nm for each well was recorded using a multimode plate reader to quantitate MTT crystallization. Each absorbance value was normalized to controls and converted into percent cell viability.
Combination index calculation: The combination index (CI) for paclitaxel and SU093 or SU056 was calculated using the Chou-Talalay Method (Chou, 2010). CI values were computed via CampuSyn software. CI<1, CI=1, and CI>1 indicate the synergistic, additive and antagonistic effect of the combination.
Combination index values for paclitaxel and SU056. […] Scale bar, 250 μm FIG. 7E) Spheroid formation was quantified after 7 days of incubation. […] Tumor sections were stained with Ki67, and slides were scored for K167 staining. […]

[4] = tested on: ID-8 tumor xenograft; experiment: ID8 syngeneic ovarian tumor model, tumor growth and lung metastasis; type: in vivo, C57BL/6 mice
Protocol: These promising results led us to test SU093 and SU056 in vivo. C57BL/6 mice were implanted with 2×10^6 firefly luciferase (luc+)-expressing ID-8 syngeneic ovarian cancer cells subcutaneously. Once the tumors reached 100 mm^3 in size, we began daily intraperitoneal treatment with SU093 and SU056 at 20 mg/kg (vehicle control 30% PEG-300 in saline). Tumor growth was monitored via bioluminescence imaging (IVIS).
Due to prior observation of a significant reduction in the migratory ability of OC cells treated with the two drugs (FIG. 1H), we also measured the effect of drug treatment on ovarian cancer metastases. At the end of above experiment, lungs were fixed and metastatic foci were counted under the dissecting microscope followed by H&E staining.
In vivo xenograft model and drug efficacy study: All animal experiments were reviewed and approved by the Animal Care and Use Committee of Stanford University, CA, USA. Luciferase tagged ID8 (2×10^6) or OVCAR8 (5×10^6) cells were implanted into the right flank of 6-7-week-old female C57BL/6 mice and NOD/SCID mice, respectively. Respective treatment began after tumors grew to 100-200 mm^3 diameters. The ID8 syngeneic mice model was treated with a vehicle (30% PEG-300 in saline), 20 mg/kg SU093, and 20 mg/kg SU056 intraperitoneally (IP) daily for 42 days. At the end of treatment, blood was collected from each mouse and analyzed for liver toxicity parameters, including Alanine Aminotransferase (ALT), Aspartate Aminotransferase (AST), and Alkaline Phosphatase (ALKP). OVCAR8 xenograft mice model was treated with vehicle (30% PEG-300 in saline), 5 mg/kg paclitaxel (once a week), 10 mg/kg SU056 (daily), a combination of paclitaxel (5 mg/kg, once a week) and SU056 (10 mg/kg, daily) for 4 weeks. Mice from both studies were euthanized, the tumor and different organs were collected and fixed in neutral buffered formalin and further processed for immunohistochemical analysis.
FIGS. 2A-2F. SU093 and SU056 inhibit mice ovarian ID-8 tumor xenograft growth in C57BL/6 mice. Mice were subcutaneously injected with ID-8 cells mixed with Matrigel in 1:1 ratio and the drug treatment started when tumors reached 100 mm^3. […] FIG. 2B) Tumor volume/mouse as a function of time. […] FIG. 2C) Tumor weight/mouse at the end of the study. […] FIG. 2D) Liver toxicity parameters at the end of 42 days showing no significant difference between control, SU093, and SU056. FIGS. 2E-2F) Lung metastasis assay. FIG. 2E) H&E staining of the lung (red arrow indicates the metastasis from ID8 xenograft). Scale bar, 250 μm. FIG. 2F) No. of lung metastatic nodules.

Compound: O=C1OCC2=C1C(c1cccc(F)c1)c1cc3c(cc1N2CCO)OCO3 (stereo not drawn) [SU056, 9-(3-fluorophenyl)-5-(2-hydroxyethyl)-6,9-dihydro-[1,3]dioxolo[4,5-g]furo[3,4-b]quinolin-8(5H)-one]
- OC colony formation [1]: decreased OC colony formation in a dose-dependent and significant manner
- OC tumor growth [2]: significant reduction in OC tumor growth
- effect on cytotoxic effects of paclitaxel (MTT) [3]: significantly potentiates the cytotoxic effects of paclitaxel
- reduction in lung metastases ([4]; 20 mg/kg daily IP, 42 days, histological scoring): 3 fold
- reduction in tumor weight ([4]; 20 mg/kg daily IP, at 42 days): 2 fold
- tumor progression vs vehicle control ([4]; 20 mg/kg daily intraperitoneal, bioluminescence imaging): significantly delay the tumor progression
